One data set relates to SARS-CoV-2. The following applies: Calu-3 cells.
The next data set deals with HCoV-229E. Briefly: microbe, parasite or virus in culture. The format is cell-based, Homo sapiens sapiens. Conditions: HCoV 229E infection, dose series, max. dose 5 µM; read-out: IC50.
In another data set the test system is Huh-7.5/F-Luc cells. The following applies: for CC50 (µM): Huh-7.5 cells, dose series, maximum tested dose 5 µM; for % cell viability at max. dose [5 µM]: at max. dose 5 µM.

The structures appear in SMILES notation.

`CN(C)C(C)(C)CSc1nc2ccccc2cc1-c1ccccc1` [ICI-170809]: in the data set on SARS-CoV-2, the “Anti-SARS-CoV-2 screening on Calu-3 cells: viability [% of control]” value was 98.23 % of control and the “Anti-SARS-CoV-2 screening on Calu-3 cells: intracellular SARS-CoV-2 infection measured via immunofluorescence imaging [% of control]” value is 103.59 % of control. Also, the IC50 (as a rule, the midpoint of a concentration-inhibition curve) in the data set with HCoV-229E was 520 nM. Moreover, in the data set on Huh-7.5/F-Luc cells, the “CC50 (µM)” value is listed as “greater than maximum tested dose” and the “% cell viability at max. dose [5 µM]” value turned out to be 138.76%.

Consider `CN1CC[C@H](c2c(O)cc(O)c3c(=O)cc(-c4ccccc4Cl)oc23)[C@H](O)C1` [Flavopiridol (Alvocidib)], for which, in the data set on SARS-CoV-2, the “Anti-SARS-CoV-2 screening on Calu-3 cells: viability [% of control]” value is given as 90.90 % of control and the “Anti-SARS-CoV-2 screening on Calu-3 cells: intracellular SARS-CoV-2 infection measured via immunofluorescence imaging [% of control]” value is on record as 15.82 % of control. Further, the IC50 with HCoV-229E is 140 nM. Besides, in the data set with Huh-7.5/F-Luc cells, the “CC50 (µM)” value is recorded as “greater than maximum tested dose” and the “% cell viability at max. dose [5 µM]” value was determined as 115.14%.

Regarding `C=CCc1c(OCCCNCc2ccccc2)ccc2c1[nH]c1ccccc12` [YM-75440], in the data set on SARS-CoV-2, the “Anti-SARS-CoV-2 screening on Calu-3 cells: viability [% of control]” value is reported as 100.37 % of control and the “Anti-SARS-CoV-2 screening on Calu-3 cells: intracellular SARS-CoV-2 infection measured via immunofluorescence imaging [% of control]” value was 109.36 % of control. Also, the IC50 in the data set on HCoV-229E was 730 nM. In addition, in the data set on Huh-7.5/F-Luc cells, the “CC50 (µM)” value is on record as “greater than maximum tested dose” and the “% cell viability at max. dose [5 µM]” value is recorded as 65.35%.

Turning to `CN(C)CCCN1c2ccccc2Sc2ccc(Cl)cc21` [Chlorpromazine69-09-0], in the data set on SARS-CoV-2, the “Anti-SARS-CoV-2 screening on Calu-3 cells: viability [% of control]” value is reported as 118.10 % of control and the “Anti-SARS-CoV-2 screening on Calu-3 cells: intracellular SARS-CoV-2 infection measured via immunofluorescence imaging [% of control]” value is 120.36 % of control. Besides, in the data set on HCoV-229E, the IC50 worked out at 770 nM. Besides, in the data set with Huh-7.5/F-Luc cells, the “CC50 (µM)” value was “greater than maximum tested dose” and the “% cell viability at max. dose [5 µM]” value is 144.29%.

For the compound `CN(C)CCCOC(CCCCc1ccccc1)c1ccccc1` (stereo not drawn) [SM-3163], in the data set on SARS-CoV-2, the “Anti-SARS-CoV-2 screening on Calu-3 cells: viability [% of control]” value is listed as 103.94 % of control and the “Anti-SARS-CoV-2 screening on Calu-3 cells: intracellular SARS-CoV-2 infection measured via immunofluorescence imaging [% of control]” value is listed as 105.69 % of control. Moreover, in the data set with HCoV-229E, the IC50 turned out to be 770 nM. Further, in the data set on Huh-7.5/F-Luc cells, the “CC50 (µM)” value is “greater than maximum tested dose” and the “% cell viability at max. dose [5 µM]” value was found to be 166.12%.

Turning to `COc1cc(/C=C/C=C/C(=O)NCCN2CCC(OC(c3ccccc3)c3ccccc3)CC2)ccc1O` [TMK-777], in the data set with SARS-CoV-2, the “Anti-SARS-CoV-2 screening on Calu-3 cells: viability [% of control]” value is 98.98 % of control and the “Anti-SARS-CoV-2 screening on Calu-3 cells: intracellular SARS-CoV-2 infection measured via immunofluorescence imaging [% of control]” value is 102.42 % of control. In addition, the IC50 in the data set with HCoV-229E is 1130 nM. In addition, in the data set with Huh-7.5/F-Luc cells, the “CC50 (µM)” value is reported as “greater than maximum tested dose” and the “% cell viability at max. dose [5 µM]” value is listed as 150.43%.

Turning to `COc1cc2c(cc1N1C[C@@H](C)N[C@@H](C)C1)N(C(=O)c1ccc(-c3ccc(-c4noc(C)n4)cc3C)cc1)CC2` [SB-616234-A], in the data set on SARS-CoV-2, the “Anti-SARS-CoV-2 screening on Calu-3 cells: viability [% of control]” value is 119.80 % of control and the “Anti-SARS-CoV-2 screening on Calu-3 cells: intracellular SARS-CoV-2 infection measured via immunofluorescence imaging [% of control]” value was 117.99 % of control. Further, in the data set on HCoV-229E, the IC50 turned out to be 570 nM. Also, in the data set on Huh-7.5/F-Luc cells, the “CC50 (µM)” value is recorded as “greater than maximum tested dose” and the “% cell viability at max. dose [5 µM]” value is 143.19%.

Take `CC(C)c1ccc2c(c1)C(N1CCN(CCO)CC1)Cc1ccc(F)cc1S2` (stereo not drawn) [isofloxythepin]: in the data set on SARS-CoV-2, the “Anti-SARS-CoV-2 screening on Calu-3 cells: viability [% of control]” value is 97.70 % of control and the “Anti-SARS-CoV-2 screening on Calu-3 cells: intracellular SARS-CoV-2 infection measured via immunofluorescence imaging [% of control]” value is recorded as 105.07 % of control. The IC50 in the data set with HCoV-229E was 790 nM. In addition, in the data set on Huh-7.5/F-Luc cells, the “CC50 (µM)” value was “greater than maximum tested dose” and the “% cell viability at max. dose [5 µM]” value is on record as 141.51%.

Regarding `Cc1c(-c2ccccc2)oc2ccc(OCCCCCCN3CCC(O)CC3)cc2c1=O` [NPC 16377], in the data set with SARS-CoV-2, the “Anti-SARS-CoV-2 screening on Calu-3 cells: viability [% of control]” value was 101.43 % of control and the “Anti-SARS-CoV-2 screening on Calu-3 cells: intracellular SARS-CoV-2 infection measured via immunofluorescence imaging [% of control]” value was 119.40 % of control. In addition, in the data set on HCoV-229E, the IC50 amounted to 1070 nM. In the data set on Huh-7.5/F-Luc cells, the “CC50 (µM)” value is “greater than maximum tested dose” and the “% cell viability at max. dose [5 µM]” value came to 107.69%.

Values taken from article PMC10916382, “Repurposing screen identifies novel candidates for broad-spectrum coronavirus antivirals and druggable host targets” (Antimicrobial Agents and Chemotherapy, 2024).
